Source: US20130202657A1, “FOAMS OR PARTICLES FOR APPLICATIONS SUCH AS DRUG DELIVERY” (BASF SE, priority 2010, published 2013)

Experiments:
[1] = Solubility of APIs in PVPVA (thin layer dried on glass slide, optical microscopy); type: physicochemical; conditions: % by mass in PVPVA; bright-field and cross-polarized optical microscopy
Protocol: The effect of API loading on PVPVA foams was studied next. To make API-laden polymer foams, a model API was added to the polymer before foaming. Clotrimazole and cholesterol were used in this example as model APIs. PVPVA was loaded with the API at concentrations ranging from 0% by mass to 30% by mass, as described above. The solubility of APIs in PVPVA was first tested by dissolving both the API and the polymer in a solvent, then spreading a thin layer on a glass slide to dry. […] These crystals were visible under bright-field and cross-polarized optical microscopy. […] Solid solutions of clotrimazole were obtained at up to 20% loading.

[2] = at typical operating pressures and temperatures; cited from earlier work

API loading in PVPVA at which crystals precipitate [1]: about 30%
SMILES: CC(C)CCC[C@@H](C)[C@H]1CC[C@H]2[C@@H]3CC=C4C[C@@H](O)CC[C@]4(C)[C@H]3CC[C@]12C [cholesterol]
solubility in CO2 [2]: about 2 g/l
